{"source": "patent US8637474B2", "about": "“Receptor modulators exhibiting neuroprotective and memory enhancing activities” (The Hong Kong University of Science and Technology, priority 2007, dated 2014)", "key": {"[1]": {"tested_on": "rat primary cortical neurons", "assay": "NMDA survival assay (LDH release), primary cortical neurons", "assay_type": "cell-based", "conditions": "NMDA 20 μM; for reduction of cell death compared to DA001: compounds in μg/ml, FIG. 13", "experimental": "FIG. 5 DA001 protects against NMDA excitotoxicity in rat cortical neurons. Embryonic rat cortical neurons (11DIV) were treated with NMDA (20 μM) in the absence or presence of TCM samples (μg/ml) or memantine (μM). Memantine is a known NMDA antagonist. LDH release in the medium was measured after overnight incubation and cell cytotoxicity was calculated as a percentage when compared to the solvent control, DMSO.\nFIG. 12. Derivatives of DA001 rescue the cortical neurons from NMDA excitotoxicity. Embryonic rat cortical neurons (11DIV) were treated with NMDA (20 μM) in the absence or presence of DA001 or its derivatives (10 or 30 μM); LDH release in the medium after overnight or 24 hours incubation was measured and cell death was calculated as a percentage in comparison to DMSO, the solvent control. Data are expressed as mean±s.e.m. *=P<0.05.\nFIG. 13. DA002 and DA021, both derivatives of DA001, reduced NMDA-induced excitotoxicity. Embryonic rat cortical neurons (11DIV) were treated with NMDA (20 μM) in the absence or presence of DA002 or DA021 (μg/ml). LDH release in the medium after overnight incubation was measured and cell cytotoxicity was calculated as a percentage in comparison to DMSO, the solvent control.\nDA001 (at 10 μg/ml) reduced cell death by more than 60% compared to the DMSO control. Compound A0178 and memantine were included as negative and positive controls, respectively.\nMemantine is an FDA-approved NMDA antagonist used for clinical indications such as dementia in Alzheimer's disease. Dose-dependant assays were performed for each compound and based on the resulting dose response curve, the corresponding EC50 for each compound was determined.\nNMDA survival assays were performed to measure the degree of protection provided to cortical neuronal cells when treated with the novel compounds (at 30 μM, except DA026 at 10 μM) prior to NMDA insult.\nCompounds derived from DA001 were tested for their ability to inhibit NMDA-induced excitotoxicity. Primary rat cortical neurons were subjected to NMDA insults in the presence and absence of the novel derivatives.\nCortical neurons were pre-treated with DA001 and subsequently subjected to varying concentrations of NMDA. Survival assays were then conducted to determine the ability of DA001 to effectively protect neuronal cells from NMDA-induced excitotoxicity.\nLDH release into the medium was then measured.\nPrimary cortical and hippocampal neurons were prepared from embryonic day 18 (E18) Sprague-Dawley rats. Neurons were plated on 24-well pate (TPP, Corning) at a density of 2×10^5 cells per well using Neurobasal medium (Invitrogen) supplemented with 2% B27 (Invitrogen). […] The cell death was assayed and quantified using the lactate dehydrogenase release assay (Roche) after 24 hours. […]"}, "[2]": {"tested_on": "rat primary hippocampal neurons", "assay": "NMDA survival assay (LDH release), primary hippocampal neurons", "assay_type": "cell-based", "conditions": "DA001 30 μM, NMDA 20 μM", "experimental": "FIG. 6. DA001 protects against NMDA excitotoxicity in rat primary hippocampal neurons. Embryonic rat hippocampal neurons (11 DIV) were treated with NMDA (20 μM) in the absence or presence of DA001 (μM) or memantine (μM). LDH release in the medium was measured after overnight incubation and cell cytotoxicity was calculated in percentage when compared to solvent control (DMSO).\nDA001 (at 30 μM) reduced cell death by ˜80%.\nPrimary cortical and hippocampal neurons were prepared from embryonic day 18 (E18) Sprague-Dawley rats. Neurons were plated on 24-well pate (TPP, Corning) at a density of 2×10^5 cells per well using Neurobasal medium (Invitrogen) supplemented with 2% B27 (Invitrogen). Neurons at 11-12 days in vitro (12DIV) were subjected to drug treatment. Neurons were pretreated with the test compound for 2 hours prior to NMDA treatment. 0.1 μM(+)-MK-801 Hydrogen Maleate (Sigma) was added as a positive control. Briefly, the neurons were rinsed with Locke's solution (5 mM potassium chloride, 128 mM sodium chloride, 2.7 mM calcium chloride, 1 mM di-sodium hydrogen orthophosphate, 5 mM HEPES and 10 mM glucose in Milli-Q water) without Mg^2+, and incubated with addition of glycine (10 μM) for 15 minutes. […] The cell death was assayed and quantified using the lactate dehydrogenase release assay (Roche) after 24 hours."}, "primary cortical neurons": {"tested_on": "primary cortical neurons", "assay": "Cell toxicity test (LDH) on primary neurons", "assay_type": "cell-based", "conditions": "24 hours, all concentrations, maximum dose 70 μM", "experimental": "FIG. 8. […] Primary cortical neurons were treated with different concentrations of DA001 for 24 hours.\nThis was performed to study the effects of the invention on primary neurons. Cortical neurons isolated from embryonic day 18 Spraque-Dawley rats were cultured in Neurobasal medium supplemented with 2% B27 and penicillin/streptomycin solution (Invitrogen). Primary neurons of 7 days in culture (7 DIV) were treated with various concentrations of the invention in the absence of B27 for 24 hours. Lactate dehydrogenases (LDH) was released into the medium and measured and calculated as percentage compared to 1% Triton X-100."}, "BDNF expression": {"tested_on": "BDNF expression", "assay": "Real-time quantitative PCR, BDNF expression following NMDA treatment", "assay_type": "cell-based, rat", "experimental": "FIG. 20 illustrates that DA001 induces BDNF and NT-3 expression but not Bcl-2 or c-fos following NMDA treatment.\nCortical neurons were pre-treated with DA001 prior to being subjected to NMDA insults, after which total RNA was extracted at different time intervals after treatment. There was a 5-fold increase in BDNF expression after a 6 hour incubation period. BDNF expression remained ˜3-4 fold over the control (DMSO) 12-24 hours after treatment with DA001.\nTotal RNA was extracted followed by cDNA synthesis. Gene expression was normalized against home gene, hypoxanthine phosphoribosyltransferase 1 (HPRT1) and glyceraldehyde 3-phosphate dehydrogenase (GAPDH). Relative change in gene expression induced by DA001+H2O and DA001+NMDA was compared with the controls, DMSO+H2O and DMSO+NMDA, respectively.\nCortical neurons were pre-treated with DA001 after which the cells were subjected to NMDA insult. The expression of BDNF was measured at three different time intervals and compared to that of NT-3, Bcl-2 and c-fos. DA001 induced BDNF and NT-3 expression but not bcl-2 or c-fos under the same conditions. […]\nCortical neurons of 11DIV-12DIV were pre-incubated with DA001 or DMSO for 24hours. […] Real-time Quantitative PCR was performed using Power SYBR Green PCR Master Mix (Applied Biosystems) on the M×3000P Real-Time PCR System (Stratagene). […]"}, "[3]": {"target": "melanocortin-1 (MC1) receptor (Homo sapiens, UniProt Q01726)", "sequence (Q01726 whole entry)": "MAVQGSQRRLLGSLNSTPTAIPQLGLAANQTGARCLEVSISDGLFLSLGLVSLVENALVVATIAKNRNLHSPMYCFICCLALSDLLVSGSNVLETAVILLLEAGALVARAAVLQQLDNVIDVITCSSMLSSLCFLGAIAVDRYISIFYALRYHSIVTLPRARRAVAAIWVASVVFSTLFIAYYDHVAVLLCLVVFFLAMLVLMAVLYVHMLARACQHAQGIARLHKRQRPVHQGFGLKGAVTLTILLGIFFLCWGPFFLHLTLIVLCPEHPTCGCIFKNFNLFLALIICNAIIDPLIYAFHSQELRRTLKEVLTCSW", "assay": "Radioligand competition binding assay, MC1", "experimental": "(§1) DA001 was evaluated against 109 receptor binding assays and 17 enzyme assays, comprising of selective, central and peripheral therapeutically-relevant targets. Radioligand competition assays were conducted whereby DA001 was tested at one concentration (10 μM) in duplicate. […] It could compete with the radioligand [^125I-NDP-alpha-melanocyte-stimulating hormone (α-MSH)] binding for MC1 and MC4 but not MC3 and MC5 nor the related family, the melanin concentrating hormone receptors (MCH1 and MCH2).\n(§2) To determine the IC50 for DA001 to inhibit α-MSH binding on MC1 and MC4 receptor, the compound was further characterized by a dose-dependent study. DA001 was evaluated with 8 concentrations on MC1 and MC4 receptor binding assays.\n(§3) The specific ligand binding to the receptors is defined as the difference between the total binding and the nonspecific binding determined in the presence of an excess of unlabelled ligand. The results are expressed as a percent of control specific binding [(measured specific binding/control specific binding)×100] and as a percent inhibition of control specific binding {100−[(measured specific binding/control specific binding)×100]} obtained in the presence of DA001. The IC50 values (concentration causing a half-maximal inhibition of control specific binding) and Hill coefficients (nH) were determined by non-linear regression analysis of the competition curves generated with mean replicate values using Hill equation curve fitting (Y=D+[(A−D)/(1+(C/C50)nH)], where Y=specific binding, D=minimum specific binding, A=maximum specific binding, C=compound concentration, C50=IC50, and nH=slope factor). This analysis was performed using a software developed at Cerep (Hill software) and validated by comparison with data generated by the commercial software SigmaPlot® 4.0 for Windows® (© 1997 by SPSS Inc.)."}, "MC3": {"target": "MC3 (Homo sapiens, UniProt P41968)", "sequence (P41968 whole entry)": "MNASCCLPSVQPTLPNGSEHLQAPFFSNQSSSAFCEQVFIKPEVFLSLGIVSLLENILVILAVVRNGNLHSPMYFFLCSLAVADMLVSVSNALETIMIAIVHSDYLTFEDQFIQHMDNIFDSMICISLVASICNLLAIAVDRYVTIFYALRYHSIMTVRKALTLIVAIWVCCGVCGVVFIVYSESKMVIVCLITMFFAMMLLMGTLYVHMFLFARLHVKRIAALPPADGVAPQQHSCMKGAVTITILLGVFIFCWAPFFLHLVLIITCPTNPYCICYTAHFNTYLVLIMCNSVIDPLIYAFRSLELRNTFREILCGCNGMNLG", "assay": "Radioligand competition binding assay, MC3", "conditions": "MC3, DA001 10 μM, duplicate; read-out: % inhibition of control specific binding", "experimental": "as §1"}, "[4]": {"target": "melanocortin-4 (MC4) receptor (Homo sapiens, UniProt P32245)", "sequence (P32245 whole entry)": "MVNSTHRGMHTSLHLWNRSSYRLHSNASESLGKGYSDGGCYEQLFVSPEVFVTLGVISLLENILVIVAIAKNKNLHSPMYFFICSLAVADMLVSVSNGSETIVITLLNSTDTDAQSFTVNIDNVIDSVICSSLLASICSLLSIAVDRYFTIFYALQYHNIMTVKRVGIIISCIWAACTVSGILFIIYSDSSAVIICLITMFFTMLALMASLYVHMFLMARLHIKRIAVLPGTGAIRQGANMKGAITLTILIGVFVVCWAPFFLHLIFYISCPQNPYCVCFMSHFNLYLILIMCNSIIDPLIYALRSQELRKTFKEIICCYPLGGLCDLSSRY", "assay": "Radioligand competition binding assay, MC4", "experimental": "as §1, §2, §3"}, "MC5": {"target": "MC5 (Homo sapiens, UniProt P33032)", "sequence (P33032 whole entry)": "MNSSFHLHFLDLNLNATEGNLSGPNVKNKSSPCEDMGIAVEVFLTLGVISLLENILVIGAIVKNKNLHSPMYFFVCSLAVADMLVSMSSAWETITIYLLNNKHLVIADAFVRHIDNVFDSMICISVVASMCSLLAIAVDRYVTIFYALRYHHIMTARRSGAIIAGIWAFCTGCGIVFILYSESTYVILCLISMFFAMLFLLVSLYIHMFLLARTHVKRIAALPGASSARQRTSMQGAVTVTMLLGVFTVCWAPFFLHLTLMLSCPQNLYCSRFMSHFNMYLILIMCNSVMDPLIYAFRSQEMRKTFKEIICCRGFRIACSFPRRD", "assay": "Radioligand competition binding assay, MC5", "conditions": "MC5, DA001 10 μM, duplicate; read-out: % inhibition of control specific binding", "experimental": "as §1"}, "[5]": {"target": "melanin concentrating hormone receptor MCH1 (Homo sapiens, UniProt Q99705)", "sequence (Q99705 whole entry)": "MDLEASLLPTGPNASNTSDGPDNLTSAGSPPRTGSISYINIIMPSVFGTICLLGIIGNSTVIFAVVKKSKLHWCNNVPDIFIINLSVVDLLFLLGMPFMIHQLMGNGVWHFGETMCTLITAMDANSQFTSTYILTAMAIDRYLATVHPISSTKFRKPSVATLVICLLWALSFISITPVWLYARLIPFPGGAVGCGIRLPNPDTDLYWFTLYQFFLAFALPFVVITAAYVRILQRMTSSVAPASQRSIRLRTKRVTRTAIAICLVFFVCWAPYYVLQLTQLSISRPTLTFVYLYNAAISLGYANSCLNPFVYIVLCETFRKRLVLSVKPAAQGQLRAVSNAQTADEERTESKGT", "assay": "Radioligand competition binding assay, MCH1", "conditions": "MCH1, DA001 10 μM, duplicate; read-out: % inhibition of control specific binding", "experimental": "as §1"}, "[6]": {"target": "melanin concentrating hormone receptor MCH2 (Homo sapiens, UniProt Q969V1)", "sequence (Q969V1 whole entry)": "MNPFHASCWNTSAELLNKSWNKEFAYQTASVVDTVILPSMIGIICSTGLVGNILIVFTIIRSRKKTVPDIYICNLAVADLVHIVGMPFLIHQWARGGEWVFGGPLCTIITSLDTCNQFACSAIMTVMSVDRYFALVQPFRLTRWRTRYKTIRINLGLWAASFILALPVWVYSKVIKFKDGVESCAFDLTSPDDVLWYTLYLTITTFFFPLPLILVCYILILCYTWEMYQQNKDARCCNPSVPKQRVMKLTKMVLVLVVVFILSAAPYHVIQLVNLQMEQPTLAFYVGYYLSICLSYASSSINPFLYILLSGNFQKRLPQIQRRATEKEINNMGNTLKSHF", "assay": "Radioligand competition binding assay, MCH2", "conditions": "MCH2, DA001 10 μM, duplicate; read-out: % inhibition of control specific binding", "experimental": "as §1"}, "melatonin (MT1) receptor": {"target": "melatonin (MT1) receptor (Homo sapiens, UniProt P48039)", "sequence (P48039 whole entry)": "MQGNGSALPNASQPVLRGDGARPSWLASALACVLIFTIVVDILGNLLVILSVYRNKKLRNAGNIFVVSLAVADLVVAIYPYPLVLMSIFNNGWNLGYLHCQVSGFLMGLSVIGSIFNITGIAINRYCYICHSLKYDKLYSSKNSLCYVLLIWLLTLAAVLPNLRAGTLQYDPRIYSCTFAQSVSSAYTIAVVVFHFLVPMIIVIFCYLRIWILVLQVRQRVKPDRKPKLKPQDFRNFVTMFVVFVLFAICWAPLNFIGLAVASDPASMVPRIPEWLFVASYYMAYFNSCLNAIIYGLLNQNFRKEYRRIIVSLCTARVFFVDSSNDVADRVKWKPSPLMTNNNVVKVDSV", "assay": "Radioligand competition binding assay, MT1", "conditions": "MT1, DA001 10 μM, duplicate; read-out: % inhibition of control specific binding", "experimental": "as §1"}}, "note": "Entries after “also recorded” stand apart in the source; their conditions may differ."}
{"smiles": "C=C(C)C1CCC2(C(N)=O)CCC3(C)C(CCC4C5(C)CCC(O)C(C)(CO)C5CCC43C)C12", "note": "(stereo not shown) [DA021, 3,23-Dihydroxy-20(29)-lupen-28-iminol]", "values": [{"measurement": "reduction of cell death compared to DA001", "setting": "[1]", "value": "reduced cell death prominently compared to DA001"}, {"measurement": "protection of cortical neurons against NMDA insult (cell death)", "setting": "[1]; derivatives at 30 μM (DA026 at 10 μM), FIG. 12", "value": "showed promising protective effect"}]}
{"smiles": "C=C(C)[C@@H]1CC[C@]2(C(=O)O)CC[C@]3(C)C(CC[C@@H]4[C@@]5(C)CC[C@H](O)[C@@](C)(CO)[C@@H]5CC[C@]43C)[C@@H]12", "note": "(stereo partly shown) [DA002, 3,23-Dihydroxy-20(29)-lupen-28-oic acid]", "values": [{"measurement": "reduction of cell death compared to DA001", "setting": "[1]", "value": "reduced cell death prominently compared to DA001"}]}
{"smiles": "C=C(C)[C@@H]1CC[C@]2(C(=O)O)CC[C@]3(C)C(CC[C@@H]4[C@@]5(C)CC[C@H](O[C@@H]6OC[C@H](O)[C@H](O)[C@H]6O[C@@H]6O[C@@H](C)[C@H](O)[C@@H](O)[C@H]6O)[C@@](C)(CO)[C@@H]5CC[C@]43C)[C@@H]12", "note": "(stereo partly drawn) [DA001, 3-O-[α-L-rhamnopyranosyl-(1→2)-α-L-arabinopyranosyl]-3,23-dihydroxy-20(29)-lupen-28-oic acid]", "values": [{"measurement": "reduction of cell death compared to DMSO control", "setting": "[1]; DA001 10 μg/ml, LDH release", "value": "more than 60%"}, {"measurement": "reduction of cell death", "setting": "[2]", "value": "~80", "unit": "%"}, {"measurement": "cytotoxicity / cell death (LDH release)", "setting": "primary cortical neurons", "value": "No obvious cell death was observed at all doses examined; also recorded: did not induce cytotoxicity and cell death at all concentrations examined; also recorded: no significant toxicity was observed"}, {"measurement": "BDNF expression over the control (DMSO)", "setting": "BDNF expression; 12-24 hours after treatment", "value": "3-4 fold"}, {"measurement": "increase in BDNF expression", "setting": "BDNF expression; after a 6 hour incubation period, DA001 pre-treatment 24 hrs, NMDA 20 μM", "value": 5, "unit": "fold"}, {"measurement": "Ki", "setting": "[3]; MC1", "value": 5.2, "unit": "µM"}, {"measurement": "IC50", "setting": "[3]; MC1, 8 concentrations, α-MSH binding", "value": 10, "unit": "µM"}, {"measurement": "inhibition at 10 µM", "setting": "[3]; MC1, DA001 10 μM, duplicate, 125I-NDP-α-MSH, read-out: % inhibition of control specific binding", "value": 64, "unit": "%"}, {"measurement": "inhibition at 10 µM", "setting": "MC3", "value": 12, "unit": "%"}, {"measurement": "Ki", "setting": "[4]; MC4", "value": 6.3, "unit": "µM"}, {"measurement": "IC50", "setting": "[4]; MC4, 8 concentrations, α-MSH binding", "value": 6.8, "unit": "µM"}, {"measurement": "inhibition at 10 µM", "setting": "[4]; MC4, DA001 10 μM, duplicate, 125I-NDP-α-MSH, read-out: % inhibition of control specific binding", "value": 59, "unit": "%"}, {"measurement": "inhibition at 10 µM", "setting": "MC5", "value": 11, "unit": "%"}, {"measurement": "inhibition at 10 µM", "setting": "[5]", "value": -9, "unit": "%"}, {"measurement": "inhibition at 10 µM", "setting": "[6]", "value": -12, "unit": "%"}, {"measurement": "inhibition at 10 µM", "setting": "melatonin (MT1) receptor", "value": 28, "unit": "%"}]}
